Values quoted from earlier work, collected in patent US9758545B2, “Sensor with a scaffold having changeable conformations” (UNIVERSITÉ DE FRIBOURG, priority 2010, dated 2017).

Settings: antibiotics integrated into implant cements

For `CN[C@H](CC(C)C)C(=O)N[C@H]1C(=O)N[C@@H](CC(N)=O)C(=O)N[C@H]2C(=O)N[C@H]3C(=O)NC(C(=O)N[C@@H](C(=O)O)c4cc(O)cc(O)c4-c4cc3ccc4O)[C@H](O)c3ccc(c(Cl)c3)Oc3cc2cc(c3O[C@@H]2OC(CO)[C@@H](O)C(O)C2O[C@H]2CC(C)(N)[C@H](O)C(C)O2)Oc2ccc(cc2Cl)[C@H]1O` (stereo partly shown) [Vancomycin], the temperature sensitive above is listed as “above 25 °C”.
